Among the data in a melting point compilation (Tetko et al.; mined from patent text by program, amines drawn as free bases though some values may be those of a salt) are melting point values, retold here.

A value given as a limit tells only on which side of the number the result lay.

As to `O=C1C=C(c2ccc(C(=O)N3Cc4cccn4Cc4ccccc43)cc2)CCC1`, the melting point lay in the range of 205 to 207 °C.
Next, `COc1ccc(-c2nc(Cl)nc(Cl)n2)cc1`: 131 to 134 °C; `O=C(Nc1ccc2c(c1)OCCO2)c1ccc2cc(Br)ccc2c1`: 223 °C.
`Cc1cc2c(cc1Sc1ccc(C(=O)O)cn1)C(C)(C)CCC2(C)C` showed a melting point of 257 to 260 °C.
On to `CCOC(=O)c1nc2cc(I)c(I)cc2[nH]c1=O`, for which the melting point fell in the range of 275 to 276 °C.
As for `COC(=O)c1cccc2nc(SCCN3CCN(CCNC(=O)Nc4c(C(C)C)cccc4C(C)C)CC3)oc12`, the figure is 186 to 188 °C; as for `CON(c1ccc([N+](=O)[O-])cc1C#N)S(=O)(=O)c1ccc(Cl)c(C(F)(F)F)c1`, 140 to 142 °C; as for `Cc1ccccc1-c1cc(=O)c2ccccc2o1`, 45.5 to 47.5 °C.
As for `CC(C)(OCc1n[nH]c2ccc([N+](=O)[O-])cc12)C(=O)O`, the figure is 210 °C; as for `O=C1C(=O)c2ccccc2C2=C1SCC1(CCN(CC(O)COc3ccccc3)CC1)O2` (stereo not drawn), 174 to 176 °C.
Next, `O=C1CC(CO)N1Cc1ccccc1` (stereo not drawn): 94 °C; `CCOC(=O)c1ccc(CN2CCN(c3cc(-c4ccccc4)c4ccc(=O)ccn34)CC2)cc1`: 129 °C; `COc1cc(CC(=O)O)ccc1OCc1nc(-c2ccccc2)oc1C`: 176 to 177 °C.
For the compound `COC(=O)CCCc1cc2nc(C(F)(F)F)ccc2n1S(=O)(=O)c1cccc(OC(F)(F)F)c1`, the melting point was 72 °C.
With `c1cncc(C2=NOC(C3CC3)(N3CCCC3)C2)c1` (stereo not drawn), the melting point lay within 90 to 92 °C.
As for `CCN1c2ncc(CCc3ccnc(CO)c3)cc2C(=O)N(C)c2ccc(Cl)nc21`, the figure is 133 to 134 °C; as for `C=C(C)C(=O)Oc1ccc(S(=O)(=O)N(C(=O)OC(C)(C)C)c2ccccc2)cc1`, 112 to 114 °C.
As for `CN1CC(Cn2cnnn2)CC2c3cccc4[nH]cc(c34)CC21` (stereo not drawn), the figure is 206 to 209 °C; as for `CCCc1c(OCCCS(=O)(=O)c2ccc(C(=O)CCCCC(=O)O)cc2)ccc(C(C)=O)c1O`, 138 to 140 °C.
As for `Cn1nc(-c2ccccc2C(F)(F)F)nc1-c1ccccc1C(F)(F)F`, the figure is 108 to 111 °C.
The compound `CCc1cc2cc(OC)c(Cl)c(Cl)c2s1` had a melting point of 73 to 74.5 °C.
Next, `O=P1(c2ccc(-c3ccccc3)cc2)c2ccccc2CN1c1ccccc1` (stereo not drawn): 259 to 261 °C; `CC(C)c1nc2c(OCc3ccccc3)cc(Br)cc2n1C`: 132 to 133 °C; `Nc1n[nH]c2cc(CN3CCN(Cc4cc5ccc(Cl)cc5s4)CC3=O)ccc12`: 246 to 248 °C.
The compound `COC(=O)C1=C(C)Nc2c(c(-c3ccccc3)nn2C)C1c1ccc(F)cc1` (stereo not drawn) registered a melting point of 181 to 183 °C.
As for `O=C(COc1ccc(Cl)cc1)N1CC2COCC2C1` (stereo not drawn), the figure is 110 °C; as for `O=c1c2c(oc3ccc(Br)cc13)CCCC2`, 149 to 150 °C; as for `CCOC(=O)c1ccc(-c2[nH]nc3c2C(=O)c2c(NC(=O)N(NC)NC)cccc2-3)s1`, 252 °C.
`OC(CCl)(Cc1ccc(Cl)cc1Cl)c1ccc(-c2ccccc2)cc1` (stereo not drawn): the melting point worked out at 84 °C.
As for `CCCCc1oc2ccc(C#N)cc2c1C(=O)c1ccc(OCCCN(CCCC)CCCC)cc1`, the figure is 85 to 87 °C; as for `COc1cccc(-c2oc3ccccc3c(=O)c2OCCCCCCN2CCC(O)CC2)c1`, 119 to 120 °C.
Next, `CCCCCCCCCC(C)(C)c1cc(-c2cc3ccc(C(=O)O)cc3o2)ccc1OC`: 150 °C; `O=C1c2ccccc2C(c2c(O)c3ccccc3oc2=O)N1c1ccccc1` (stereo not drawn): 335 to 337 °C.
Next, `Fc1ccc(-c2nnc(S)nc2-c2ccc(F)cc2)cc1`: 180 to 182 °C; `Cc1cc(C)cc(CCCn2c(=O)c3c(Cl)cc(Cl)cc3n(Cc3ccccc3)c2=O)c1`: 144 to 147 °C; `Cc1nn(-c2ccccn2)c2nc3ccccc3c(C)c12`: 157 to 159 °C.
The compound `CC(=O)N1CCC(CCC(=O)c2ccc3c4c2CCCC4CN3C(C)=O)CC1` (stereo not drawn) gave a melting point of 130 to 132 °C.
Next, `CC1(C)CC(=S)Nc2ccc(-c3cccc(Cl)c3)cc21`: 197 to 198 °C; `O=C(O)C1=C(c2ccc3c(c2)OCO3)c2ccccc2S(=O)(=O)N1Cc1ccc2c(c1)OCO2`: 229 to 230 °C; `CC1(C)CC(S(=O)(=O)Cc2c(C(F)(F)F)nn(-c3ccccc3)c2Cl)=NO1`: 132 to 133 °C.
As for `O=C(c1c(Cl)cccc1Cl)N(C(=O)c1c(Cl)cccc1Cl)c1cc(-c2ccc(Cl)cc2)on1`, the melting point was 219 to 223 °C.
In the case of `O=C(O)CCCc1cc2nc(Cl)ccc2n1S(=O)(=O)c1ccc2ncccc2c1`, the melting point fell in the range of 153 to 162 °C.
Next, `COc1ccc(-c2nc(-c3ccc(F)cc3)c(-c3ccncc3)[nH]2)cc1`: 264 to 265 °C; `CN(C)c1ccc(N2CCN(Cc3c[nH]c4ncccc34)CC2)cc1`: 199 to 201 °C.
Next, `CCc1nc(OC)c(NC(=O)N2CCN(c3cc(C)cc(C)c3)CC2)cc1C`: 135 to 136 °C; `COC(=O)CC(=O)c1cc(OC)c2c(c1)OCO2`: 65.5 to 66.5 °C.
Regarding `COC(=O)c1ccc(C(=O)Nc2ccc3c(c2)C(C)(C)CCC3(C)C)nc1`, the melting point is 176 to 177 °C.
`CCc1ncn(Nc2cccc(C)c2)c1-c1ccccc1` yielded a melting point of 158 to 160 °C.
Next, `CC(=O)Nc1ncc(Cc2ccc(Cl)cc2)c(N)n1`: 215 °C; `C=Cc1cccc(-n2cnc(-c3cnc4[nH]cc(C(=O)N[C@@H](C)C(C)(C)C)c4n3)c2)c1`: 253 to 257 °C.
Next, `CC(C)(O)c1cccc(S(N)(=O)=O)c1`: 107 to 108 °C; `O=C(NCC1(c2ccccc2)CCCCC1)Nc1ccc(Br)cc1`: 172 to 173 °C; `COC(=O)c1cc(O)cc(Cl)c1O`: 126 °C.
Next, `CNc1nc(-c2ccco2)c2ncn(Cc3ccc(OC)cc3)c2n1`: 144 to 145 °C; `[O-][N+](=Cc1ccccn1)c1cccc(CO)c1`: 117 to 119 °C; `Cc1cc(C)cc(Nn2cnc(C)c2-c2ccccc2)c1`: 154 to 156 °C.
Regarding `CCCC(C)(C)c1nc(CC(=O)O)c(C)o1`, the melting point was 97 to 98 °C.
As to `CCOc1ccc(C=CC(=O)c2c(OCC)cc(OCC)cc2OC(=O)CC)cc1`, the melting point came out at 84.5 °C.
In turn, `CNc1ccc(N2CCOC2=O)cc1[N+](=O)[O-]` showed a melting point of 192 °C.
Regarding `N#Cc1ccc(CNC(=O)C2Cc3ccccc3N2S(=O)(=O)c2ccc(-c3cccc(C(F)(F)F)c3)cc2)cc1` (stereo not drawn), the melting point is 80 to 89 °C.
As for `CN(CCNc1ccc2c3c(nn2CCN)-c2c(OCc4ccccc4)ccc(OCc4ccccc4)c2C(=O)c13)Cc1ccccc1`, the figure is 169 to 172 °C; as for `CC(C)C(=O)CCSc1cc(C(C)(C)C)c(O)c(C(C)(C)C)c1`, 50 to 53 °C; as for `Cc1c(F)c(F)c(C(N)=O)c(F)c1F`, 157 to 158 °C.
In turn, `COCCc1nc2c(N)nc3ccccc3c2n1CCOCCNC(=O)c1ccccc1` yielded a melting point of 184 to 187 °C.
Next, `CC(=O)Nc1ccc(C=CC2CSC(=O)NN2)cc1` (stereo not drawn): 235 to 240 °C; `Cc1cn(NCCCc2ccncc2F)c2ccc(OC(=O)NN3CCc4ccccc4C3)cc12`: 157 to 160 °C; `CC(C)c1cccc(C(C)C)c1OC(=O)CCC(=O)O`: 101 to 102 °C.
Next, `O=[N+]([O-])c1ccc(-c2noc(-c3ccccn3)n2)cc1`: 202 to 203 °C.
As for `O=C(O)c1nccnc1N1CCN(CC(O)CO)CC1` (stereo not drawn), the figure is 175 to 184 °C.
For `O=C(NC(=O)c1c(F)cccc1Cl)Nc1ccc(S(=O)C(F)(F)C(F)F)cc1F` (stereo not drawn), the melting point lay within 213 to 216 °C.
In turn, `COc1c(CCCI)cccc1OCc1coc(/C=C/c2ccccc2)n1` showed a melting point of 103 to 104 °C.
`CCNC(=O)c1cccc(F)c1[Si](C)(C)C` showed a melting point of 80 to 82 °C.
Next, `CCCNC(=O)C=Cc1ccc2ccn(Cc3ccc(C(=O)O)cc3OC)c2c1`: 210 to 212 °C; `COc1ccc(N2CCN(c3c(C)c(C)c4c(c3C)C(O)(c3ccccn3)C(C)(C)O4)CC2)cc1` (stereo not drawn): 113 to 115 °C.
In the case of `Cc1cc(-c2cc(C(F)(F)F)n3ncc(-c4cccnc4)c3n2)ccc1Cl`, the melting point came to 193 °C.
Compound `Cc1cc(OC/C=C/c2ccc(C(C)C)cc2)c(C)c(C)c1NC=O` displayed a melting point of 165 to 167 °C.
As for `CCC(C(=O)N(C)C)C(C#N)(c1ccccc1)c1ccccc1` (stereo not drawn), the figure is 170 to 172 °C.
Next, `CC(C)(C)c1ccc(Cn2cc(C(=O)C(=O)O)c3ccc(-c4ccc(OC(F)(F)F)cc4)cc32)cc1`: 183 to 186 °C; `CSc1ccc2n1CCC2C#N` (stereo not drawn): 58 to 58.5 °C; `NP(N)(=O)NC(=O)c1ccc2ccccc2c1`: more than 400 °C.
Next, `CSc1nc2ccccc2n1C1CCNCC1`: 114 to 115 °C; `CC(=O)c1cc2c(s1)C(=O)c1ccsc1C2=O`: 223 to 225 °C.
Turning to `Fc1cc(CBr)ccc1-c1nc2ccccc2o1`, the melting point is 170 to 173 °C.
Next, `CCCc1nc(C(C)(C)O)c(C(=O)OCC)n1Cc1ccc(-c2ccccc2C(=O)NC(C)(C)C)cc1`: 145 to 146 °C; `COC(=O)c1cncn1C1c2ccccc2C=CC1(C)C` (stereo not drawn): 60 to 61 °C.
As for `O=C1CCC(N2C(=O)c3cccc(CNC(=O)Nc4cccc5ccccc45)c3C2=O)C(=O)N1` (stereo not drawn), the figure is 250 to 252 °C; as for `CC(C)n1c(=O)nc(-c2cc3c(cc2Cl)OCO3)c2cc3c(cc21)OCO3`, 147 to 150 °C.
Consider `Cc1cc2c(cc1C)Sc1cscc1C(=O)N2`, for which the melting point lay within 264 to 265 °C.

A word on the melting point: it is the temperature, or range, at which the solid turns liquid.
